Results as given in patent US4389412A, “Substituted cyclopropanecarboxylic acid esters and pesticidal compositions containing the same as active ingredient” (priority 1979, dated 1983).

Columns and labels:
[1] = test system: guppies (Lebistes reticulatus); test: Fish toxicity test with guppies; assay type: in vivo; details: Table 1; 48 hrs.
Method in brief: (§1)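 Ten female guppies, 3–4 months old, held at 20 °C in water containing surfactant and test compound added in acetone solution. TLm (median tolerance limit, ppm) determined.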

[2] = Fish toxicity test with guppies; assay type: in vivo, Lebistes reticulatus; details: guppy, water, guppies, 20° C., read-out: TLm (48 hrs.)
Method in brief: as §1

[3] = test system: tobacco cutworm (Prodenia litura); test: Utility Example-5: spray on soy bean leaves, tobacco cutworm larvae; assay type: in vivo; details: 48 h, 2 days
Protocol: An acetone solution of one of the test compounds as mentioned in Table 13 and Tween-20 (the same surfactant as mentioned hereinbefore) was prepared. This acetone solution was diluted with water to prepare a solution containing the test compound in a predetermined concentration. Leaves of soy bean in pots were sprayed with the above diluted solution at the rate of 20 ml/pot and, after one day, ten 3-instar larvae of tobacco cutworm (Prodenia litura) were released on the leaves. The pots were kept in a constant-temperature chamber at 25° C.

crop plants = test: Phytotoxicity test; assay type: in vivo; details: 2,000 ppm solution on leaves, after 10 days
Text: A 2,000 ppm solution of each of the cis- and trans-isomers and a 50:50 mixture of cis- and trans-isomers of Compound (1) and of Compound (2), and a 50:50 mixture of the cis- and trans-isomers of Compound (B) and Compound (E) was applied to the leaves of the following crop plants.
After 10 days, the crop plants were examined for their phytotoxicities.

[4] = Acute toxicity test in rat by the oral route; assay type: in vivo; details: in vivo, male rat, in olive oil, after 7 days
Text: (§2) Acute toxicity test in rat by the oral route

fish = test: Toxicity to fish compared with other pyrethroids
Text: This invention is the culmination of the above findings.

pests = test: Pesticidal effectiveness, overall; details: in vivo
Text: The pesticidal activity of the compounds according to this invention against green rice leafhoppers (Nephotettix cincticeps Uhler), rice stem borers (Chilo suppressalis Walker), tobacco cutworms (Prodenia litura […]) and houseflies (Musca domestica), as examples of the pests against which the same compounds are considered effective, the acute toxicity data on the same compounds as determined in rat by the oral route and the median tolerance limit (TLm) data on the same compounds as determined in killifish (Orizias latipes) and guppies (Lebistes reticulatus) are shown in Table 1 alongside the corresponding values for various control compounds. The pesticidal effects were determined by the procedures set forth in Test Examples 1 through 4, while the acute toxicity to rat was determined by the procedure set forth in Test Example 9 and the toxicity to fish was determined by the procedures set forth in Test Examples 6 and 7, all those Examples appearing hereinafter.

carp (Cyprinus carpio L) = test: Fish toxicity test with carp; assay type: in vivo; details: 48 hrs., 21±1° C.; 2880 min
Method in brief: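 Compound in acetone with Tween-20 dispersed in 50 L aerated water at a set concentration; five carp (about 6 g, 6 cm) exposed at 21±1° C. Deaths checked after 48 h, and TLm (median tolerance limit, ppm) determined.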

[5] = test system: killifish (Orizias latipes); test: Fish toxicity test with killifish; assay type: in vivo; details: Table 1; 48 hrs.
Method in brief: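 Test compound dispensed from acetone solution into water at set concentrations; ten aerated-water killifish (~0.25 g, ~2.5 cm) held at 25±1° C. Deaths scored after 48 hours; TLm (median tolerance limit, ppm) determined.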

rat = test: Acute toxicity test in rat by the oral route; assay type: in vivo; details: Table 1, rat, 10080 min
Text: as §2

Row | Compound | Toxicity to fish TLm, guppy [1] [ppm] | LC50 at 48 h [2] [µg/mL] | mortality at 6.5 ppm [3] [%] | mortality at 13 ppm [3] [%] | phytotoxicity (crop plants) | LD50 at 168 h [4] [mg/kg] | toxicity to fish in words (fish) | pesticidal effectiveness in words (pests) | TLm, Carp (48 hrs.) (carp (Cyprinus carpio L)) [ppm] | Toxicity to fish TLm, killifish [5] [ppm] | Acute oral toxicity to rat LD50 (rat) [mg/kg]
1 | CC1(C)C(C=C(Cl)Cl)C1C(=O)OCc1cccc(Oc2ccccc2)c1 (stereo not shown) [Compound (B), Permethrin] | < 0.5 | < 0.5 | 60 | 90 | did not cause any injury to each one of the crop plants | 300 |  |  |  |  | 
2 | C#CC(OC(=O)[C@@H]1[C@@H](C=C(Cl)Cl)C1(C)C)c1cccc(Oc2ccc(Cl)cc2)c1 (relative stereo) [Compound (2) trans-] |  |  |  |  |  |  | by far low in toxicity to fish | outstanding in pesticidal activity against various pests |  |  | 
3 | C#CC(OC(=O)C1C(C=C(Cl)Cl)C1(C)C)c1cccc(Oc2ccc(Cl)cc2)c1 (stereo not drawn) [Compound (2) cis-/trans- = 50:50, 3-(4-chlorophenoxy)-α-ethynylbenzyl 2,2-dimethyl-3-(2,2-dichlorovinyl)cyclopropanecarboxylate] | > 10 | > 10 | 100 | 100 |  | > 3000 |  |  | 2.8 | > 10 | > 3000
